Format in all cases: in vivo, rat
One assay concerns rats. In words: Abortive test on rats s.c. and p.o. An excerpt: (§1) The tests below were all performed on rats according to known methods.
Abortive test s.c. and p.o.: See, for example, EP-A 0 283 428.

The subject of the next assay is prostate weight. In words: Androgen test on rats p.o. (stimulation of the prostate weight). The method, then: as §1
Androgen test p.o.: Stimulation of the prostate weight with the test compound, vehicle: s.c. benzylbenzoate, castor oil (1+4); p.o. NaCl-myrj; reference compound testosterone propionate. Virtually no stimulation of the prostate weight is observed up to a dose of 10 mg of test compound/animal/day.

The next assay has as its system uterus weight. Description: Uterus growth test on rats p.o. for estrogenic action. As to conditions: ovariectomized rats, 3-day treatment. Here is the method: The tests below were all performed on rats according to known methods. Uterus growth test p.o. for estrogenic action: Stimulation of uterus weight with the test compound, vehicle: s.c. benzylbenzoate/castor oil (1+4); p.o. NaCl-myrj; 3-day treatment of ovariectomized animals; parameters: uterus weight and endometrial epithelium height; vaginal smear negative; reference compound: estradiol 0.1 μg.

Assay [1] has as its system dexamethasone-induced thymus suppression. In words: Antithymolysis test on rats p.o. on antiglucocorticoid action. The text has this:
The tests below were all performed on rats according to known methods. Antithymolysis test p.o. on antiglucocorticoid action: See, for example, EP-A 0 283 428.

Regarding `CC(=O)c1ccc([C@H]2C[C@@]3(C)[C@@H](CC[C@@]3(O)C(F)(F)C(F)(F)F)[C@@H]3CCC4=CC(=O)CCC4=C32)cc1` [B, 11β-(4-Acetylphenyl)-17β-hydroxy-17α-(1,1,2,2,2-pentafluoroethyl)estra-4,9-dien-3-one], the “Abortive test on rats p.o. (n abortion/n total)” value in the assay with rats (dose 0.03 mg/animal/day), in the assay with rats (dose 0.1 mg/animal/day) and in the assay on rats (dose 0.3 mg/animal/day) was “(4/4)” throughout. The “Abortive test on rats s.c. (n abortion/n total)” value in the assay on rats (dose 0.03 mg/animal/day), in the assay with rats (dose 0.1 mg/animal/day) and in the assay on rats (dose 0.3 mg/animal/day) was “(4/4)” each time. The “Androgen test on rats p.o. (% prostate stimulation)” value with prostate weight (dose 1 mg/animal/day) is “(2.1) %”; in the assay with prostate weight (dose 3 mg/animal/day) it was “(0) %”. Also, the “Uterus growth test on rats p.o. (% uterus weight stimulation)” value in the assay with uterus weight (dose 10 mg/animal/day) is listed as “(2.6) %”. Besides, the “Antithymolysis test on rats p.o. (% elimination of dexamethasone-induced thymus suppression)” value in assay [1] (dose 1 mg/animal/day) is listed as “(1.2) %”; in assay [1] (dose 3 mg/animal/day), “(21.6) %”; in assay [1] (dose 10 mg/animal/day) it was “(18.2) %”.

Consider `C=C1CCOC12CCC1C3CCC4=CC(=O)CCC4=C3C(c3ccc(C(C)=O)cc3)CC12C` (stereo not drawn) [E, 11β-(4-Acetylphenyl)-19,24-dinor-17,23-epoxy-17α-chola-4,9,20-trien-3-one, reference compound], for which the results for the “Abortive test on rats p.o. (n abortion/n total)” value in the assay on rats (dose 0.03 mg/animal/day), with rats (dose 0.1 mg/animal/day) and with rats (dose 0.3 mg/animal/day) were “(0/4)”, “(4/4)” and “(4/4)”, respectively. Further, the “Abortive test on rats s.c. (n abortion/n total)” value with rats (dose 0.03 mg/animal/day) was “(0/4)”; with rats (dose 0.1 mg/animal/day) it was “(3/4)”; in the assay on rats (dose 0.3 mg/animal/day), “(4/4)”. The “Androgen test on rats p.o. (% prostate stimulation)” value with prostate weight (dose 1 mg/animal/day) was “(4.0) %”; in the assay on prostate weight (dose 3 mg/animal/day), “(5.6) %”; in the assay on prostate weight (dose 10 mg/animal/day) it was “(4.4) %”. In addition, the “Uterus growth test on rats p.o. (% uterus weight stimulation)” value with uterus weight (dose 3 mg/animal/day) is “(1.3) %”; in the assay with uterus weight (dose 10 mg/animal/day), “(2.4) %”. The “Antithymolysis test on rats p.o. (% elimination of dexamethasone-induced thymus suppression)” value in assay [1] (dose 1 mg/animal/day) is reported as “(4.3) %”; in assay [1] (dose 3 mg/animal/day), “(19.1) %”; in assay [1] (dose 10 mg/animal/day), “(44.7) %”.

Regarding `CC(=O)c1ccc(C2CC3(C)C(CCC3(O)C(F)(F)C(F)(F)F)C3CCC4=CC(=O)CCC4C23)cc1` (stereo not drawn) [Compound A, 11β-(4-Acetylphenyl)-17β-hydroxy-17α-(1,1,2,2,2-pentafluoroethyl)estr-4-en-3-one], the “Abortive test on rats p.o. (n abortion/n total)” value in the assay on rats (dose 0.03 mg/animal/day), in the assay with rats (dose 0.1 mg/animal/day) and with rats (dose 0.3 mg/animal/day) was “(4/4)” each time. For the same compound, the “Abortive test on rats s.c. (n abortion/n total)” value with rats (dose 0.03 mg/animal/day), with rats (dose 0.1 mg/animal/day) and with rats (dose 0.3 mg/animal/day) was “(4/4)” in each case. Also, the results for the “Androgen test on rats p.o. (% prostate stimulation)” value in the assay with prostate weight (dose 1 mg/animal/day) and in the assay with prostate weight (dose 3 mg/animal/day) were “(4.8) %” and “(3.3) %”, respectively. The “Uterus growth test on rats p.o. (% uterus weight stimulation)” value in the assay on uterus weight (dose 10 mg/animal/day) is “(3.7) %”. Moreover, the “Antithymolysis test on rats p.o. (% elimination of dexamethasone-induced thymus suppression)” value in assay [1] (dose 1 mg/animal/day) is recorded as “(6.0) %”; in assay [1] (dose 3 mg/animal/day), “(7.4) %”; in assay [1] (dose 10 mg/animal/day), “(11.5) %”.

On to “6′-Acetyl-9,11α-dihydro-17β-hydroxy-17α-(1,1,2,2,2-pentafluoroethyl)-4′H-naphth[3′,2′,1′:10,9,11]estr-4-en-3-one [Compound C]”, for which the “Abortive test on rats p.o. (n abortion/n total)” value with rats (dose 0.003 mg/animal/day), in the assay with rats (dose 0.01 mg/animal/day), in the assay on rats (dose 0.03 mg/animal/day), with rats (dose 0.1 mg/animal/day) and with rats (dose 0.3 mg/animal/day) was “(4/4)” in each case. In addition, the “Abortive test on rats s.c. (n abortion/n total)” value in the assay on rats (dose 0.03 mg/animal/day), in the assay with rats (dose 0.1 mg/animal/day) and with rats (dose 0.3 mg/animal/day) was “(4/4)” in each case. Also, the “Uterus growth test on rats p.o. (% uterus weight stimulation)” value with uterus weight (dose 10 mg/animal/day) is “(4.4) %”. The “Antithymolysis test on rats p.o. (% elimination of dexamethasone-induced thymus suppression)” value in assay [1] (dose 2.2 mg/animal/day) is listed as “(7.2) %”; in assay [1] (dose 6.7 mg/animal/day) it was “(31.6) %”; in assay [1] (dose 22 mg/animal/day), “(18.8) %”.

Take `CC#C[C@]1(O)CC[C@H]2[C@@H]3CCC4=CC(=O)CCC4=C3[C@@H](c3ccc(N(C)C)cc3)C[C@@]21C` [D, 11β-[4-(Dimethylamino)phenyl]-17β-hydroxy-17α-(1-propinyl)estra-4,9-dien-3-one, reference compound]: the “Androgen test on rats p.o. (% prostate stimulation)” value with prostate weight (dose 1 mg/animal/day) is “(1.6) %”; in the assay with prostate weight (dose 3 mg/animal/day) it was “(2.9) %”; in the assay with prostate weight (dose 10 mg/animal/day), “(7.2) %”. For the same compound, the “Uterus growth test on rats p.o. (% uterus weight stimulation)” value in the assay with uterus weight (dose 10 mg/animal/day) was “(6.4) %”. The “Antithymolysis test on rats p.o. (% elimination of dexamethasone-induced thymus suppression)” value in assay [1] (dose 1 mg/animal/day) is “(19) %”; in assay [1] (dose 3 mg/animal/day), “(79) %”; in assay [1] (dose 10 mg/animal/day), “(76) %”.

For the origin of these results see patent publication US20050080060A1, “Antigestagenically active steroids with a fluorinated 17alpha-alkyl chain” (priority 1997, published 2005).
